Where two headings read alike, the source gives them in different places.
Columns and labels:
atopic dermatitis = assay: MC903-induced atopic dermatitis model; type: in vivo, murine; details: MC903 4 nmol/ear daily, glyburide 2.5 mg/kg, i.p.
Protocol: Atopic dermatitis was induced by treating ears with MC903 (4 nmol/ear, daily). The contralateral ear was treated with the vehicle for MC903. Mice were treated with either glyburide (2.5 mg/kg, i.p., daily) or vehicle control. (A) Ear thickness was measured daily. (B-C) On day 11, mice were euthanized and ear tissue embedded sectioned and stained with (B) H & E to evaluate cellular infiltration or (C) Avidin (AvRho) to evaluate mast cells. […] (B-C) show representative images from 3-7 mice over two experiments.

sepsis = details: in vivo; cited from earlier work
peanut allergy = assay: Peanut allergy desensitization by microneedle arrays; type: in vivo, mouse; details: delivered with peanut antigen by microneedle arrays to sensitized mice
[1] = test system: allergic contact hypersensitivity (CHS); details: NKA administration, cited from earlier work
BMMCs = assay: MS/MS shotgun proteomics on BMMC releasate; type: cell-based, murine
Protocol: BMMCs (4×10^6) were activated in Tyrode's Buffer without BSA (500 μl) for 1 hour. Protease Inhibitor Cocktail (Sigma, containing aprotinin, bestatin, E-64, leupeptin and pepstatin A) was added to cell free supernatants. Supernatants were concentrated using Amicon Ultra Centrifugal Filters-3K (EID Millipore). Protein concentrations were quantified with the BCA Protein Assay Kit (ThermoFisher). Tryptic peptides were generated with the filter-aided sample preparation method, desalted with C18 spin columns and dried in aspeedvac. Peptides were reconstituted in 0.5% formic acid in 96:4 water:acetonitrile and resolved with liquid chromatography tandem mass spectrometry with a system composed of a Waters nanoACQUITY UPLC in-line with a Q-Exactive mass spectrometer (ThermoFisher). Solvent A (0.1% formic acid in water, Burdick & Jackson) and solvent B (0.1% formic acid in acetonitrile, Burdick & Jackson) were used as the mobile phase. Peptides were then eluted from a capillary column (100 μm inner diameter×100 mm long; ACQUITY UPLC M-Class Peptide BEH C18 Column, 1.7-μm particle size, 300 Å (Waters), and resolved using a 100-min gradient at a flow rate of 0.9 μL/min (4-33% B for 90 min, 33-80% B for 2 min, constant at 80% B for 6 min, and then 80-0% B for 2 min to equilibrate the column). Data were collected in positive ionization mode. PEAKSX software was used to sequence and identify peptides in each sample using a decoy search at a 1.0% false discovery rate using the UniProt murine database. Label-free quantitation was performed using the quantitative module in the PEAKSX software. The MS proteomics data have been deposited to the ProteomeXchange Consortium via the PRIDE partner repository with the dataset identifier PXD021377. Pathway analysis for expressed proteins was done using the Panther Classification System.

PMCs = assay: β-hexosaminidase release from PMCs; type: cell-based, murine; details: incubated with NKA or activated with IgE and antigen in the presence of NKA
Protocol: Mast cells (5×10^5-1×10^6) were loaded with IgE ([…]) for a minimum of 3 h in Tyrode's Buffer. Neurokinin A ([…]) was added with DNP-HSA (Sigma, as indicated or 100 ng/mL) for 40 min at 37 C. Cells and supernatants were collected, cell pellets were lysed in Tyrode's Buffer by freeze-thawing then incubated with p-nitrophenyl N-acetyl j-D-glucosaminide (EMB Millipore, 5 mM) dissolved in citrate buffer (0.04 M, pH 4.5) for 90 minutes. The enzymatic reaction was stopped with glycine (0.4 M, pH 10.7). Absorbance at 450 nm was read. The average percentage of b-hexosaminidase release from triplicate values was calculated as (ODsup/ODsup+ODlysate)×100(%).

MCs = details: previous studies; cited from earlier work
ABCA1 [2] = assay: Surface ABCA1 expression on activated PMCs (flow cytometry); type: cell-based, murine; details: 30 minutes after IgE-initiated activation; NKA 1000 nM
Protocol: (§1) MCs were collected and washed with PBS containing 0.5% BSA and 0.1% sodium azide. Non-specific binding was inhibited using FcBlock (PBS with 2.0% goat serum and 0.25 mg/mL anti-CD16/32 (clone 2.4G2, BD Biosciences). Surface staining was done with anti-CD117 eFluor450 (clone 2B8, ThermoFisher), anti-FcεRI FITC (clone MAR-1, ThermoFisher) and anti-ABCA1 Alexa Fluor 647 (clone 5A1-1422, BioRad). Cells were washed with Wash Buffer (PBS with 0.5% BSA and 0.1% sodium azide). To detect differences in granulated proteins at the cell surface, IgE-loaded MCs were activated with DNP-HSA with or without NKA in Tyrode's Buffer for 30 min, washed with Wash Buffer then stained with Avidin Alexa Fluor488 (Invitrogen, Av488, 0.8 μg/5×10^5 cells) and anti-LAMP-1 PE (clone eBio 1D48, ThermoFisher). Data were acquired on either a LSRII or a Fortessa (BD BioSciences). Analysis was performed with FlowJo v10.4 (BD Biosciences).

calpain = assay: Calpain activity in cell-free supernatants of activated PMCs; type: cell-based, murine; details: IgE+Ag with or without NKA for 60 min
Protocol: Calpain activity was detected from cell-free supernatants using the Calpain-Glo Protease Assay (Promega). Supernatants were incubated with substrate for 10 min prior to luminescent detection. In some experiments, glyburide or vehicle (0.1% DMSO) were added to cells 10 min prior to Ag. ELISA kits from eBioscience (IL-13), BioLegend, (TNF and IL-10) or RayBiotech (NKA) and used in accord with the manufacturer's recommendations.

IL10 mRNA = IL10 mRNA in ear skin 3 h after NKA injection; type: in vivo, mouse
Protocol: Total RNA was isolated from either MCs or murine ear tissue 3 h hours after NKA injection. Tissue was homogenized in Navy RINO tubes (Next Advance) in a Bullet Blender Storm (Next Advance). RNA was extracted per standard methods with Trizol (Invitrogen). cDNA was reversed transcribed with the Quantitech Reverse Transcription Kit (Qiagen). PCR products were amplified with Fast SybrGreen (ABI) on a StepOne Plus Cycler ([…]) using the following primers: TNF […] NO: 5), TNF […] NO: 6); IL13 […] NO: 7), IL13 […] NO: 8); IL10 […] NO: 9); IL10 […] NO: 10); Bactin […] NO: 11); Bactin […] NO: 12). Data are presented as 2^-ΔΔCT using f-actin as the housekeeping gene and normalizing to either untreated cells or naïve control mice.

ABCA1 [3] = assay: Surface ABCA1 expression on activated BMMCs (flow cytometry); type: cell-based, murine; details: 30 minutes after IgE-initiated activation; NKA 1000 nM
Protocol: as §1

For COc1ccc(Cl)cc1C(=O)NCCc1ccc(S(=O)(=O)NC(=O)NC2CCCCC2)cc1 [glyburide, reference compound], which cutaneous inflammation (atopic dermatitis) is on record?
Its cutaneous inflammation is “reduces cutaneous inflammation”.

And the “effect in diabetic patients in sepsis” value (sepsis)?
Its value is “anti-inflammatory and protective”.

And the “allergy to peanut allergen after CPE challenge” value (peanut allergy)?
The value was “desensitizes”.

What does the source list for Neurokinin A [NKA]?
allergic contact hypersensitivity (CHS) in the skin [1]: blocks; allergic contact hypersensitivity (CHS) in the skin ([1]; listed as Neurokinin A): inhibits inflammation; release of proteases β-hexosaminidase, MC carboxypeptidase, cathepsin D and chymase (BMMCs): unchanged; release of proteins associated with metabolism and cellular function pathways (pathway analysis) (BMMCs): inhibited; number of proteins upregulated by NKA (BMMCs; BMMCs activated 60 minutes): 94; catalytic subunit of calpain 1 in releasate (BMMCs; BMMCs activated in the presence of NKA): not detected; β-hexosaminidase release (PMCs): no difference; effect on MCs (β-hexosaminidase or histamine release as readouts) (MCs): no effect; ABCA1 detected on the cell surface (ABCA1 [2]): reduced the level of ABCA1; calpain activity in supernatants (calpain): significantly diminished; IL10 mRNA in the skin (IL10 mRNA; MC-deficient (Mcpt5Cre^+×Rosa26DTA^+) mice): no difference; IL10 mRNA levels in the skin (IL10 mRNA; MC-sufficient (Mcpt5Cre^−×Rosa26DTA^+) mice): significantly increased; ABCA1 detected on the cell surface (ABCA1 [3]): reduced the level of ABCA1

Reference: patent US20240238228A1, “COMPOSITIONS AND METHODS FOR TREATING ALLERGIES AND INFLAMMATORY CONDITIONS” (UNIVERSITY OF PITTSBURGH-OF THE COMMONWEALTH SYSTEM OF …, priority 2021, published 2024)
